This is an account of results in patent publication EP2433636A1, “Treatment of Malignant Diseases” (Medizinische Universität Wien, priority 2010, dated 2012).

“Also recorded” adds a separate entry of the source.

One data set relates to phospho-Akt. The experiment in a line: Phospho-Akt by flow cytometry. In kind it is cell-based, Human. The protocol: (§1) One portion of the cells were then fixed with 70% ethanol for 1h at 4°C, washed with PBS and stained with propidium iodide (PI) puffer with 50 µg/ml DNase-free RNaseA. Cells in different cell cycle stages were determined. The rest of the cells were fixed with Cytofix fixation buffer (BD) for 30 min at 37°C, washed and then permeabilized with Perm buffer III (BD) and stained with Cyclin D1 (anti-human Cyclin D1 antibody set), phospho-Akt (anti-phospho-Akt pT308), phospho-ERK (anti-phospho-ERK1/2 pT202/pY204), phospho-JNK (anti-phospho-JNK pT183/pY185) and phospho-p38 antibodies (anti-phospho-p38 MAPK pT180/pY182) (the latter antibodies were purchased from BD Biosciences). […] were analyzed on a FACScan flow cytometer (BD Biosciences) with an argon laser tuned to 488 nm.

A further data set has as its system Pak1. Kind of data set: Western blot, Pak1 total protein. In kind it is cell-based, Human. The following applies: 2 µM for 24h, compared to controls. The protocol:
(§2) Cell lysates were prepared (Aharinejad et al., Cancer Res. 62 (2002), 5317-5324 and Cancer Res. 64 (2004), 5378-5384) and 50 µg/lane separated by 9% SDS-PAGE prior to electrophoretic transfer onto Hybond C super (Amersham Pharmacia Biotech, Buckinghamshire, UK). The blots were probed with antibodies against PAK1 and phospho-Pak1 (pS144)/Pak2 (pS141) (Cell Signaling Technology, Danvers, MA) before incubation with horseradish peroxidase-conjugated secondary antibodies (Amersham Pharmacia Biotech). Proteins were immunodetected by chemiluminescence (Supersignal-West- Femto, Pierce, Rockford, IL) and quantified by Image Quant 5.0 software (Molecular Dynamics, Sunnyvale, CA).

The subject of data set [1] is CRL-2505 prostate cancer xenograft. Kind of data set: Human prostate cancer xenograft tumour model. In kind it is in vivo, athymic nu/nu (nude) mice. The protocol:
The experiments performed in this study were approved by the Institutional Animal Care and Use Committee at the Vienna Medical University. Pathogen-free, male, 5 week-old athymic nu/nu (nude) mice (Charles River, Sulzfeld, Germany) were weighed, coded and divided into experimental groups of (n = 10) at random. Mice were anesthetized (ketamine hydrochloride/xylazine at 55/7.5 mg/kg i.p.) and 15x10^6 CRL-2505 cells/100 µl PBS were injected s.c. into the left flank (Aharinejad et al., 2004). In a preliminary experiment mice received i.p. injections with 100 µg compound AZA1, AZA2, AZA3, or AZA4 in 100 µl 30% DMSO six days after cell injection for two weeks, control animals received 100 µl 30% DMSO/day (n = 5 for each group). […] Tumour volumes were calculated as length x width^2/2. […]
On day 24, tumors were isolated, weighed and the animals were sacrificed. […] Primary antibodies were detected by sequential incubation with appropriate biotinylated secondary antibodies (Vector Laboratories, Burlingame, CA) and peroxidase conjugated streptavidin (Dako), developed with 3, 3'-diaminobenzidine (Vector Laboratories), counter-stained with haemalaun, dehydrated and mounted in DPX (Merck, Darmstadt, Germany) and digitalized images were generated.

Another data set has as its system phospho-p38. The experiment in a line: Phospho-p38 by flow cytometry. In kind it is cell-based, Human. As to conditions: compared to untreated cells. As to the method:
(§3) Tumour cells were seeded in 10 cm plates and allowed to adhere before treatment with 20 µM compound AZA1 for 4 h before trypsinization and washing with PBS.
as §1
A general note: A flow cytometer gives signals particle by particle.

A further data set relates to Rac 1, 2, 3. Kind of data set: Rac 1, 2, 3 activation assay (G-LISA) after EGF stimulation. In kind it is cell-based, Human. As to the method:
Prostate cancer cells were seeded in 6-well plates and starved for 20 h. Cells were incubated with Rac1 small molecule inhibitor AZA1 for 4 h and then stimulated with 50 ng/ml epidermal growth factor (EGF) (R&D systems) for 1 min 30 sec and Rac activation was then measured with the G-LISA method (Rac 1, 2, 3 activation assay, colorimetric format, Cytoskeleton) according to the manufacturer's protocol.

A further data set relates to phospho-ERK. The experiment in a line: Phospho-ERK by flow cytometry. As to conditions: compared to untreated cells. In kind it is cell-based, Human. As to the method: as §3, §1
The next data set concerns Prostate cancer cells. Kind of data set: In vitro migration assay (Boyden chamber). As to conditions: compared to untreated controls. In kind it is cell-based, Human. The protocol:
Prostate cancer cells (5x10^4 in 1 ml DMEM with 10% FCS) were added to the top of each Boyden migration chamber (8-µm, 12-well plate format; BD Biosciences, Palo Alto, CA). Cells were incubated with 1, 2, and 5 µM of compound AZA1. […] Cells from the upper side of the membrane were removed with cotton swabs. The membranes were excised using a scalpel, inverted and transferred to a PBS filled tissue culture well. Membranes were then fixed in methanol for 2 min at -20°C. After washing in PBS, membranes were stained with 1 µg/ml 4'-6-Diamidino-2-phenylindole (DAPI) in PBS for 10 min at RT and washed again in PBS. Membranes were then embedded in Cityfluor (Cityfluor, Leicester, UK) on glass slides under coverslips. Representative sectors of migrated prostate cancer cells were counted under a fluorescence microscope. Each experiment was performed in triplicate.

Data set [2] is described as follows: Solubility test in 20-30% DMSO in water. In kind it is physicochemical. As to conditions: appropriate if 1mM of the compound is soluble in 20-30% DMSO in water; 100 mM stock in 100% DMSO. As to the method: Compounds in powder form were dissolved in 100% DMSO to obtain 100 mM stock solutions of each of the compounds. Solubility of the compounds was then tested by preparing solutions in 20-30% DMSO in water. […] Compounds which were non-soluble in 30% DMSO were regarded as non-soluble. NSC23766 was always used as a reference compound.

The next data set concerns phospho-JNK. Kind of data set: Phospho-JNK by flow cytometry. In kind it is cell-based, Human. The following applies: compared to untreated cells. As to the method:
as §3, §1

For data set [3], the system named is CRL-2505 cells. Kind of data set: Cell cycle distribution by flow cytometry (propidium iodide). In kind it is cell-based, Human. The following applies: 24 h; for sub G1 events (M1): untreated 1.47%. As to the method:
as §1

Data set [4] deals with CRL-2505 cells. Kind of data set: Apoptosis by flow cytometry (Annexin V-FITC and PI). The following applies: 3 h after treatment. In kind it is cell-based, Human. The source says:
Then the effect of Rac1 inhibition on the cell cycle regulatory protein Cyclin D1 was examined. […] Next, flow cytometry was used to assess apoptosis in response to Rac1 inhibition.

The subject of data set [5] is CRL-2505 prostate cancer xenograft. The experiment in a line: Survival study in prostate cancer xenograft bearing mice. In kind it is in vivo, athymic nu/nu (nude) mice. The protocol:
The experiments performed in this study were approved by the Institutional Animal Care and Use Committee at the Vienna Medical University. Pathogen-free, male, 5 week-old athymic nu/nu (nude) mice (Charles River, Sulzfeld, Germany) were weighed, coded and divided into experimental groups of (n = 10) at random. Mice were anesthetized (ketamine hydrochloride/xylazine at 55/7.5 mg/kg i.p.) and 15x10^6 CRL-2505 cells/100 µl PBS were injected s.c. into the left flank (Aharinejad et al., 2004). In a preliminary experiment mice received i.p. injections with 100 µg compound AZA1, AZA2, AZA3, or AZA4 in 100 µl 30% DMSO six days after cell injection for two weeks, control animals received 100 µl 30% DMSO/day (n = 5 for each group). In the main experiment, mice received i.p. injections with 100 µg compound AZA1 in 100 µl 30% DMSO six days after cell injection for two weeks, control animals received 100 µl 30% DMSO/day (n = 10 for each group). Tumour volumes were calculated as length x width^2/2. All animals were sacrificed on day 20.
The survival study was set for three months. Mice were treated with compound AZA1 (n = 10) or 30% DMSO (n = 10) and were euthanized when moribund.
Data were tested for normality using the Shapiro-Wilk test. Groups were compared by nonparametric analysis of variance (ANO-VA, Wilcoxon rank-sum test, Kruskal-Wallis test). All statistical tests were two-sided. The overall survival curves after treatment were analyzed by the Kaplan-Meier survival test. Statistical tests were performed with the use of SAS software (version 9.1.3) and Enterprise Guide (version 4.1, SAS Institute Inc., Cary, NC). Data are expressed as means ± SD. P values of < 0.05 were considered to indicate statistical significance.

Another data set relates to Cyclin D1. The experiment in a line: Cyclin D1 expression by flow cytometry. In kind it is cell-based. As to conditions: Homo sapiens, 4 h; compared to untreated controls; read-out: Cyclin D1 fluorescence intensity, decrease. The protocol: as §3, §1
Data set [6] relates to phospho-Pak1 (pS144)/Pak2 (pS141). The experiment in a line: Western blot, phospho-Pak1/2. In kind it is cell-based, Human. As to conditions: 2 µM for 24h, compared to controls. As to the method:
as §2
(A western blot detects proteins with antibodies after separation by electrophoresis.)

For data set [7], the system named is CRL-2505 prostate cancer cells. The experiment in a line: WST-1 cell proliferation assay. In kind it is cell-based, Human. As to conditions: 72 hours of incubation with 1, 2, 5, 10 and 25 µM, compared to untreated cells. The protocol:
Human CRL-2505 cells were seeded in 96-well plates at a density of 1x10^4 cells/well in culture medium. Cells were incubated with 1, 2, 5, 10, 25 µM compound AZA1. Cell proliferation was determined 24, 48 or 72 h after treatment using the WST-1 reagent (Roche Diagnostics, Indianapolis, IN) according to the manufacturer's protocol (Zins et al., Cancer Res. 67 (2007), 1038-1045). Each experiment was repeated three times.
For orientation: Tetrazolium assays rely on reduction of a dye to a coloured formazan, in cell work by metabolically active cells.

For another data set, the system named is PC-3. As to conditions: Rac-hyperactive prostate cancer cells PC-3; cited from earlier work.
Data set [8] relates to chronic myelogenous leukemia (CML). As to conditions: in vitro and in vivo; cited from earlier work.

`Cc1cc2cc(Nc3ccnc(Nc4ccc5[nH]c(C)cc5c4)n3)ccc2[nH]1` [AZA1, N*2*,N*4*-Bis-(2-methyl-1H-indol-5-yl)-pyrimidine-2,4-diamine]: in the data set with phospho-Akt (5 min to 90 min after treatment), the “pAkt at different time points” value was “decreased significantly”. Besides, the inhibition at 20 µM is 24% with phospho-Akt (Homo sapiens, 1 h, 20 µM for 60 min (Fig. 4A), compared to untreated cells, read-out: phospho-Akt levels, reduction) and 22% in the data set with Cyclin D1. For the same compound, the Pak1 expression entry with Pak1 is “not changed”. Also, in data set [1] (preliminary experiment, 100 µg i.p. in 30% DMSO, n = 5 per group), the “ranking of AZA1 to AZA4 in the in vivo experiments (solubility, lack of toxicity, tumor-suppressive effects)” value is recorded as “most potent agent”. Also, in [1] (tumour tissue sections, day 24), the “cell proliferation, staining with Ki-67 antibody” value is recorded as “reduced”. Also, the “phosphorylation of p38” value in the data set on phospho-p38 is on record as “significant decrease”. In addition, the Rac activity result in the data set with Rac 1, 2, 3 (CRL-2505 cells, 5, 10 and 20 µM, 4 h incubation, then 50 ng/ml EGF) is on record as “reduced Rac activity significantly”. Also, in the data set with Rac 1, 2, 3 (screening of the newly designed compounds, CRL-2505 cells after EGF treatment), the “Rac inhibiting activity, compared with the other screened compounds or NSC23766” value is reported as “improved Rac inhibiting activity when compared to NSC 23766; also recorded: most effective Rac inhibitor”. For the same compound, in the data set on phospho-ERK, the “activity of ERK (phospho-ERK)” value is recorded as “not affected”. Besides, the cancer cell migration entry was “failed to reduce cancer cell migration” in the data set with Prostate cancer cells (1 µM); “significantly reduced migration” in the data set on Prostate cancer cells (2 µM, 20 h); “significantly reduced migration” in the data set with Prostate cancer cells (5 µM, 20 h). The solubility result in data set [2] was “appropriate solubility”. For the same compound, the “phosphorylation of JNK” value with phospho-JNK is on record as “significant decrease”. The “sub G1 events (M1)” value came out at 8.08% with CRL-2505 cells [3] (1 µM) and 9.26% with CRL-2505 cells [3] (2 µM). In addition, in the data set on CRL-2505 cells [3] (2 µM, untreated 32.25%), the “G2/M (M4) phases” value was 28.44%. The “apoptosis (staining with Annexin V-FITC and PI)” value in the data set on CRL-2505 cells [4] is recorded as “no significant signs of apoptosis”. The “median time to death” value in [5] (after tumour cell grafting, control 39 ± 15 days) was determined as 46 ± 4 days. The animals still alive in data set [5] (day 42, when the last control animal died) is 60%. Also, the survival result in data set [5] (vs. control mice, Kaplan-Meier) was “significantly increased”. Besides, in [6], the “Pak1/2 phosphorylation at serine 144/141” value is “significantly reduced”. Also, in data set [7], the CRL-2505 cell proliferation result is on record as “significantly reduced”.
Consider `CCN(CC)CCCC(C)Nc1ncc(C)c(Nc2ccc3[nH]c(C)cc3c2)n1` (stereo not shown) [Compound 10, N*2*-(4-Diethylamino-1-methyl-butyl)-5-methyl-N*4*-(2-methyl-1H-indol-5-yl)-pyrimidine-2,4-diamine], for which the solubility entry in [2] was “appropriate solubility”.
Still for that read-out and setting: the value for `c1cc(Nc2ccc3[nH]ccc3c2)nc(Nc2ccc3[nH]ccc3c2)n1` [Compound 41, N*2*,N*4*-Bis-(1H-indol-5-yl)-pyrimidine-2,4-diamine] was “appropriate solubility”; that for `c1cc(NCc2ccc3[nH]ccc3c2)nc(Nc2ccc3cc[nH]c3c2)n1` [Compound 55, N*2*-(1H-Indol-6-yl)-N*4*-(1H-indol-5-ylmethyl)-pyrimidine-2,4-diamine] was “appropriate solubility”.
In the case of `CCN(CC)CCCC(C)Nc1nc(C)cc(Nc2ccc3nc(C)cc(N)c3c2)n1` (stereo not shown) [NSC23766, N6-(2-((4-(diethylamino)-1-methylbutyl)amino)-6-methyl-4-pyrimidinyl)-2-methyl-4,6-quinolinediamine], in the data set on PC-3, the anchorage independent growth entry is “able to inhibit”, the invasion result is “able to inhibit” and the proliferation result is on record as “able to inhibit”. The “proliferation of chronic myelogenous leukemia (CML)” value in data set [8] was “inhibited proliferation”.
